From patent US20170298051A1, “ACTIVATOR OF ADIPONECTIN RECEPTOR” (THE UNIVERSITY OF TOKYO, priority 2013, published 2017)

Test system: AdipoR1-AMPK-PGC-1α pathways in skeletal muscle
Test: Skeletal muscle: gene expression, mitochondrial DNA content, TG content, TBARS in mice fed a HF diet
Format: in vivo
Protocol: Mitochondrial content assays were carried out as described previously^a,b, with slight modifications. For quantification of mitochondrial content, we used mtDNAas previously described^c.
Real-time PCR was carried out according to the method described previously^a,b,c. Total RNA was prepared from cells or tissues with Trizol (Invitrogen) according to the manufacturer's instructions. We used a real-time PCR method to quantify the mRNAs^19, with slight modifications.
Skeletal muscle homogenates were extracted, and tissue triglyceride content was determined as described previously^a-c, with some modifications. To investigate whether oxidative stress was increased, we measured lipid peroxidation, a marker of oxidative injury, as represented by plasma thiobarbituric acid reactive substance (TBARS) as described previously^4. Briefly, tissue samples were homogenized in a buffer solution containing 50 mM Tris-HCl (pH 7.4) and 1.15% KCl, and then centrifuged. The supernatant was used for the assay. The levels of lipid peroxidation in tissue homogenate and plasma were measured in terms of the amount of TBARS using the LPO test (Wako Pure Chemical Industries).

[1] = Adipor1/r2 double-knockout mice

SMILES: O=C(COc1ccc(C(=O)c2ccccc2)cc1)NC1CCN(Cc2ccccc2)CC1 [Compound 73, 2-(4-benzoyl-phenoxy)-N-(1-benzylpiperidin-4-yl)acetamide]
- effects on mitochondrial genes and mitochondrial DNA content in skeletal muscle [1]: totally obliterated
- levels of type I fiber marker Troponin I (slow) (Tnni1) [1]: but not in Adipor1/r2 double-knockout mice
- effect on Sod2 and TBARS (Adipor1/r2 double-knockout mice fed with a HF diet): such effect was not observed
- levels of type I fiber marker Troponin I (slow) (Tnni1) (WT mice): increased the levels
- mitochondrial DNA content in skeletal muscle (WT mice): increased mitochondrial DNA content
- TG content in the skeletal muscle (WT mice fed with a HF diet): decreased TG content
- expression levels of oxidative stress detoxifying genes such as Sod2 (skeletal muscle, WT mice): significantly increased expression levels
- genes involved in fatty acid oxidation such as Acadm (skeletal muscle, WT mice): significantly increased
- oxidative stress markers such as TBARS (skeletal muscle, WT mice): decreased oxidative stress markers
